The values that follow come from patent US20160038526A1, “TREATMENT OF PROSTATE CANCER” (THOMAS JEFFERSON UNIVERSITY, priority 2012, published 2016).

Entries after “also recorded” stand apart in the source; their conditions may differ.

In one test the target is T1, Stat5b (Homo sapiens, UniProt P51692).
T1 construct: expressed in transfected cells; host or cells: PC-3 (human prostate cancer cell line)
The test can be described thus: Stat5b transcriptional activity, β-casein promoter luciferase reporter gene assay in PC-3 cells. Type of test: cell-based. The note with it: 1 hour pretreatment, 10 nM hPrl for 16 hours. As for the experimental part: Cells of the human prostate cell line PC-3 were plated into 96-well plate at the density of 2×10^5 per well. After 24 hours of plating, cells were transiently co-transfected using FuGENE6 (Roche) with 0.25 μg of each of pStat5a or pStat5b, pPrlR (prolactin receptor) plasmids, 0.5 μg of pBeta-casein-luc and 0.025 μg of pRL-TK (Renilla luciferase) plasmids as an internal control. After another 24 hours of transfection, the cells were starved in serum-free medium for 8 hours, pretreated with N^6-benzyladenosine-5′-monophosphate (“N6BAP”), or one of five control compounds (designated “C3” through “C7”) of similar molecular weight but unrelated chemical structure to N6BAP), for 1 hour, and then stimulated with 10 nM human prolactin (hPrl) in the serum-free medium for additional 16 hours. The lysates were assayed for firefly and Renilla luciferase activities using the Dual-Luciferase reporter assay system (Promega). Three independent experiments were carried out in triplicate. The firefly luciferase activity was normalized to the Renilla luciferase activity of the same sample, and the mean was calculated from the parallels. From the mean values of each independent run, the overall mean and its standard deviation (S.D.) were calculated.
On the technique in general: In a reporter assay the amount or activity of a reporter protein is the signal.

A further test relates to HT1080 (fibrosarcoma). As to the kind of experiment: Cell viability assay, HT1080. The class given is cell-based.
Test [1] deals with CAPAN human pancreatic cancer cells. The test can be described thus: Cell viability assay, CAPAN. Type of test: cell-based. As for the experimental part:
(§1) CWR22Rv1 prostate cancer cells were treated with N6BAP or the control compound C5 (Ctrl) at 25 μM concentration or vehicle for 24 h. Following trypan blue exclusion, the attached viable vs. de-attached dead cells were counted. […] The bars indicate mean±SD of triplicate wells. In another assay, CWR22Rv1, LNCaP and DU145 cells were treated with N6BAP, the control compound C5 (Ctrl) or vehicle at indicated concentrations. The fraction of alive cells was determined by MTS ([…]) metabolic activity assay (CellTiter 96® AQueous Assay kit). The results are shown in FIGS. 9C, 9D and 9E, respectively.
(§2) The procedure of Example 9 was followed, substituting cells of the following solid tumor cell lines for the cells treated in Example 9: A549 human lung cancer cells, CAPAN human pancreatic cancer cells, T47D human breast cancer cells, […], A2058 human melanoma and COS-7 monkey fibroblast cell lines.

Test [2] concerns T47D human breast cancer cells. As to the kind of experiment: Cell viability assay, T47D. Type of test: cell-based. Here is the method:
as §1, §2

In test [3] the test system is human clinical prostate cancer explants. As to the kind of experiment: Clinical prostate cancers ex vivo in explant organ cultures: viability of epithelium. The note with it: eight patients, 7 days, N6BAP 5, 10, 25, 50 and 100 μM. Type of test: cell-based. An excerpt:
For organ cultures, prostate cancer specimens were obtained during surgery from eight patients with localized or locally advanced prostate cancer undergoing radical prostatectomy and bilateral iliac lymphadenectomy. The specimens are identified in Table 1.
(§3) The specimens comprised de-identified excess tissue obtained after the completion of pathology diagnosis. A zero-sample prior to organ culture was formalin-fixed for each individual prostate cancer for the analysis of the nuclear Stat5a/b status. The prostate organ cultures were performed as described earlier (Ahonen et al., Endocrinology (2002), 143:228-238). Briefly, prostate cancer tissue was cut into approximately 1 mm^3 pieces in a plain culture medium and transferred onto lens papers lying on stainless steel grids in petri dishes. […] Tissue explants were cultured in a medium containing the N6BAP or control compound C5 at indicated concentrations (C5: […]; N6BAP: 5, 10, 25, 50 and 100 μM) 7 days, after which the explants were fixed in formalin and analyzed for Stat5a/b activation and viability of prostate cancer epithelial compartment. Viability of the epithelial cells in the prostate cancer explants at the end of the cultures were scored by counting the viable epithelial cells per explant.

The subject of the next test is Stat5a/b. The test can be described thus: Clinical prostate cancers ex vivo in explant organ cultures: nuclear Stat5a/b immunohistochemistry. Type of test: cell-based, human. The note with it: 7 days, N6BAP 5, 10, 25, 50 and 100 μM; C5 100 m. Here is the method: as §3, with “dishes. The medium was phenol-free medium 199 with Earle's salts (Sigma) containing dialyzed 5% fetal calf serum, G-penicillin (100 IU/ml), streptomycin sulfate ([…]), and glutamine (100 μg/ml).” for “dishes.”
Nuclear Stat5a/b indexes were determined by counting the Stat5-positive cells per 500 epithelial cells in the cultured explants in each treatment group.

T1 sequence (P51692 whole entry, species assumed): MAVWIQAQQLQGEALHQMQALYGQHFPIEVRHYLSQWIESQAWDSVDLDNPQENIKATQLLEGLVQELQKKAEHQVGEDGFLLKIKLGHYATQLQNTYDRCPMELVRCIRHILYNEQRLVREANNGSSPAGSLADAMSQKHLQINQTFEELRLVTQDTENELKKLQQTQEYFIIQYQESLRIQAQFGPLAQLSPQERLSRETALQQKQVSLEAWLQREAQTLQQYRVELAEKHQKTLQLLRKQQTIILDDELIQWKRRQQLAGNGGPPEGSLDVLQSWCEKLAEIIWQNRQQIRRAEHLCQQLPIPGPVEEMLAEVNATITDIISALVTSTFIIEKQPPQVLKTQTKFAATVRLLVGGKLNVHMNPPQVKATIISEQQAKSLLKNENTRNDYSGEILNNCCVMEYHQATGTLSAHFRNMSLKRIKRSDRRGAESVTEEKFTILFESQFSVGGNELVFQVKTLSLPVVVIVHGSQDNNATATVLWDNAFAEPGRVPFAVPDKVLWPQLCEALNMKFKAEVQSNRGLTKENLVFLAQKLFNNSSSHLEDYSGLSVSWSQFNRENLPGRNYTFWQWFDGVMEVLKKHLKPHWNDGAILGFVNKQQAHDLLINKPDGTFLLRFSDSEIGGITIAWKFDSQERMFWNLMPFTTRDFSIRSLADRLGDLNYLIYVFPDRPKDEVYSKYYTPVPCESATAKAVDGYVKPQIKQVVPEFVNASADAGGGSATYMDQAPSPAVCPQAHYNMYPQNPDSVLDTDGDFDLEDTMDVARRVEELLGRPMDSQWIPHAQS

Consider `O=P(O)(O)OC[C@H]1O[C@@H](n2cnc3c(NCc4ccccc4)ncnc32)[C@H](O)[C@@H]1O` [N6BAP, N^6-benzyladenosine-5′-monophosphate], for which the “transcriptional activity of Stat5b on the β-casein gene promoter” value on Stat5b is “inhibited Stat5a and Stat5b transcriptional activity in a concentration-dependent manner; also recorded: effectively blocks the transcriptional activity”. Besides, the cell viability entry (in the test on HT1080 (fibrosarcoma); in test [1]; in test [2]) was “did not affect the viability” each time. Besides, the “viability of prostate cancer epithelium in explant organ cultures” value in test [3] was “induced extensive death of prostate cancer epithelium”. In addition, the “nuclear Stat5 expression in explant organ cultures” value in the test with Stat5a/b is recorded as “reduced the levels of nuclear Stat5 expression”.
